Assay: xn = mol fraction of the nth substance listed, in the solute-free solvent

Nc1cccc(S(=O)(=O)c2cccc(N)c2)c1 + CCO + O
solubility (g/100 g solution)
Conditions | 283.15 K | 288.15 K | 293.15 K | 298.15 K | 303.15 K | 308.15 K | 313.15 K | 318.15 K | 323.15 K | 328.15 K
x2 = 0.04165 | 0.0709 | 0.0964 | 0.128 | 0.168 | 0.215 | 0.284 | 0.356 | 0.459 | 0.577 | 0.72
x2 = 0.08908 | 0.129 | 0.173 | 0.226 | 0.3 | 0.383 | 0.491 | 0.619 | 0.788 | 0.987 | 1.23
x2 = 0.1436 | 0.209 | 0.277 | 0.357 | 0.462 | 0.591 | 0.744 | 0.941 | 1.16 | 1.45 | 1.78
x2 = 0.2068 | 0.318 | 0.41 | 0.509 | 0.646 | 0.822 | 1.02 | 1.25 | 1.51 | 1.84 | 2.24
x2 = 0.2812 | 0.455 | 0.561 | 0.706 | 0.874 | 1.07 | 1.3 | 1.56 | 1.89 | 2.26 | 2.69
x2 = 0.3698 | 0.604 | 0.732 | 0.907 | 1.11 | 1.34 | 1.64 | 1.92 | 2.33 | 2.7 | 3.21
x2 = 0.4772 | 0.76 | 0.93 | 1.14 | 1.34 | 1.62 | 1.92 | 2.28 | 2.69 | 3.15 | 3.7
x2 = 0.6101 | 0.914 | 1.09 | 1.31 | 1.55 | 1.88 | 2.19 | 2.57 | 3.03 | 3.51 | 4.06
x2 = 0.7788 | 1.1 | 1.29 | 1.52 | 1.79 | 2.08 | 2.43 | 2.81 | 3.25 | 3.75 | 4.28

S=c1[nH]ncs1 + CCCO + O
solubility (g/100 g solution)
Conditions | 278.15 K | 283.15 K | 288.15 K | 293.15 K | 298.15 K | 303.15 K | 308.15 K | 313.15 K | 318.15 K | 323.15 K
x2 = 0.1 | 1.64 | 2.13 | 2.71 | 3.49 | 4.42 | 5.59 | 6.98 | 8.6 | 10.7 | 13.4
x2 = 0.2 | 3.48 | 4.3 | 5.41 | 6.75 | 8.22 | 10 | 12.1 | 14.6 | 17.5 | 20.8
x2 = 0.3 | 5.01 | 6.25 | 7.53 | 9.11 | 10.8 | 12.9 | 15.4 | 18.1 | 21.5 | 25.1
x2 = 0.4 | 6.2 | 7.46 | 8.98 | 10.7 | 12.7 | 14.7 | 17.2 | 20.1 | 23.3 | 26.9
x2 = 0.5 | 7.02 | 8.48 | 9.9 | 11.7 | 13.5 | 15.7 | 18.1 | 20.8 | 23.9 | 27.3
x2 = 0.6 | 7.59 | 8.9 | 10.3 | 11.9 | 13.8 | 15.9 | 18.2 | 20.4 | 23.3 | 26.4
x2 = 0.7 | 7.61 | 8.94 | 10.3 | 11.8 | 13.6 | 15.4 | 17.3 | 19.7 | 22.2 | 25.2
x2 = 0.8 | 7.47 | 8.6 | 9.84 | 11.4 | 13.1 | 14.6 | 16.8 | 18.9 | 21.2 | 24.1
x2 = 0.9 | 6.73 | 8.12 | 8.99 | 10.4 | 11.8 | 13.5 | 15.3 | 17.3 | 19.6 | 22.2

Cl.N=C(N)N + COCCO + CCCO
solubility (g/100 g solution)
Conditions | 278.15 K | 283.15 K | 288.15 K | 293.15 K | 298.15 K | 303.15 K | 308.15 K | 313.15 K | 318.15 K | 323.15 K
x2 = 0.08075 | 10.4 | 11.1 | 12.4 | 13.1 | 14.6 | 15.7 | 16.7 | 17.6 | 19.2 | 20.2
x2 = 0.253 | 17.4 | 18.7 | 20.1 | 20.9 | 21.8 | 23.2 | 24.1 | 24.9 | 25.7 | 26.9
x2 = 0.4413 | 23.9 | 24.8 | 25.9 | 26.6 | 27.7 | 28.3 | 29.1 | 30 | 30.9 | 31.4
x2 = 0.6479 | 29.4 | 30.1 | 30.7 | 31.8 | 32.2 | 33.2 | 33.8 | 34.3 | 35 | 35.6
x2 = 0.8768 | 32.5 | 33.2 | 34.3 | 34.9 | 35.8 | 36.6 | 37.1 | 38.3 | 38.9 | 39.5

S=c1[nH]ncs1 + CC(C)=O + O
solubility (g/100 g solution)
Conditions | 278.15 K | 283.15 K | 288.15 K | 293.15 K | 298.15 K | 303.15 K | 308.15 K | 313.15 K | 318.15 K | 323.15 K
x2 = 0.1 | 1.78 | 2.36 | 2.99 | 3.78 | 4.76 | 6 | 7.45 | 9.31 | 11.5 | 14.2
x2 = 0.2 | 6.07 | 7.41 | 8.84 | 10.6 | 12.5 | 14.8 | 17.3 | 20.2 | 23.6 | 27.1
x2 = 0.3 | 11.4 | 13.3 | 15.3 | 17.4 | 19.6 | 22.2 | 24.9 | 28.1 | 30.9 | 34.4
x2 = 0.4 | 15.7 | 17.9 | 20.2 | 22.5 | 24.8 | 27.1 | 29.6 | 32.5 | 35.3 | 38.5
x2 = 0.5 | 19.8 | 21.7 | 23.7 | 25.6 | 27.8 | 30.3 | 32.6 | 34.8 | 37.3 | 40.1
x2 = 0.6 | 22 | 23.6 | 25.6 | 27.3 | 29.3 | 31.4 | 33.2 | 35.3 | 37.6 | 39.8
x2 = 0.7 | 22.6 | 24.3 | 26.2 | 27.7 | 29.5 | 31.4 | 33.2 | 35 | 37.1 | 39.3
x2 = 0.8 | 23.1 | 24.5 | 25.9 | 27.4 | 29.1 | 30.8 | 32.5 | 34 | 35.7 | 37.4
x2 = 0.9 | 21.4 | 22.6 | 24.2 | 25.6 | 27.2 | 28.6 | 30.4 | 32.1 | 33.7 | 35.3

O=C(O)CC(O)C(=O)O (stereo unspecified) + C1CCOC1 + CCOC(C)=O
solubility (g/100 g solution)
Conditions | 278.15 K | 283.15 K | 288.15 K | 293.15 K | 298.15 K | 303.15 K | 308.15 K | 313.15 K | 318.15 K | 323.15 K
x2 = 0.234 | 9.32 | 10.1 | 11 | 12 | 13.2 | 14.4 | 15.8 | 17.2 | 18.6 | 20.4
x2 = 0.3437 | 13.6 | 14.7 | 15.9 | 17.2 | 18.7 | 20.4 | 22.1 | 24 | 26.1 | 28.7
x2 = 0.4489 | 19.3 | 20.5 | 21.8 | 23.2 | 24.7 | 26.3 | 27.9 | 29.9 | 31.9 | 34.2
x2 = 0.55 | 24.6 | 26 | 27.6 | 29 | 30.8 | 32.7 | 34.6 | 36.6 | 39.2 | 41.8
x2 = 0.647 | 27.6 | 28.9 | 30.5 | 32.2 | 34.2 | 36.3 | 38.4 | 40.8 | 43.5 | 46.4
x2 = 0.7403 | 30.1 | 31.8 | 33.3 | 34.9 | 36.9 | 38.8 | 40.9 | 43.3 | 46 | 48.7
x2 = 0.8302 | 34.8 | 36 | 37.7 | 39 | 40.7 | 42.6 | 44.4 | 46.4 | 48.7 | 51.4

Cc1c(Br)cccc1C(=O)O + CN(C)C=O + O
solubility (g/100 g solution)
Conditions | x2 = 0.039 | x2 = 0.091 | x2 = 0.16 | x2 = 0.259 | x2 = 0.411 | x2 = 0.677
278.15 K | 5.54 | 9.19 | 12.7 | 16.1 | 19.4 | 22.9
283.15 K | 8.07 | 11.1 | 15.1 | 18.9 | 22.7 | 26.7
288.15 K | 6.03 | 11.5 | 16.6 | 21.4 | 26 | 30.7
293.15 K | 9.6 | 15.3 | 20.6 | 25.5 | 30.3 | 35.3
298.15 K | 11.6 | 18.1 | 23.9 | 29.3 | 34.6 | 40.1
303.15 K | 13.8 | 21 | 27.5 | 33.4 | 39.2 | 45.3
308.15 K | 16 | 24.1 | 31.1 | 37.6 | 43.8 | 50.5
313.15 K | 18.6 | 27.5 | 35.2 | 42.1 | 48.7 | 55.9
318.15 K | 21.6 | 31.2 | 39.4 | 46.6 | 53.5 | 61.2
323.15 K | 24.4 | 35 | 43.7 | 51.3 | 58.6 | 66.8
328.15 K | 27.9 | 39 | 48.1 | 55.9 | 63.4 | 72

COc1cc2c(cc1OC)-c1cc3ccc(OC)c(OC)c3c[n+]1CC2.[Cl-] + O + CC(O)CO
solubility (g/100 g solution)
Conditions | 283.15 K | 288.15 K | 293.15 K | 298.15 K | 303.15 K | 308.15 K | 313.15 K | 318.15 K | 323.15 K | 328.15 K
x2 = 0.3194 | 0.0156 | 0.0224 | 0.0316 | 0.0473 | 0.0678 | 0.0953 | 0.132 | 0.184 | 0.251 | 0.339
x2 = 0.5135 | 0.0475 | 0.0664 | 0.0917 | 0.133 | 0.186 | 0.256 | 0.347 | 0.47 | 0.626 | 0.826
x2 = 0.6441 | 0.104 | 0.142 | 0.193 | 0.274 | 0.376 | 0.505 | 0.672 | 0.891 | 1.17 | 1.51
x2 = 0.7379 | 0.183 | 0.245 | 0.329 | 0.457 | 0.614 | 0.811 | 1.06 | 1.38 | 1.78 | 2.26
x2 = 0.8085 | 0.279 | 0.368 | 0.512 | 0.702 | 0.905 | 1.16 | 1.5 | 1.92 | 2.41 | 3
x2 = 0.8636 | 0.395 | 0.513 | 0.673 | 0.9 | 1.21 | 1.57 | 1.97 | 2.46 | 3.04 | 3.73
x2 = 0.9079 | 0.537 | 0.688 | 0.893 | 1.17 | 1.55 | 1.96 | 2.44 | 3 | 3.69 | 4.46
x2 = 0.9441 | 0.72 | 0.971 | 1.23 | 1.57 | 1.95 | 2.41 | 2.97 | 3.63 | 4.39 | 5.26
x2 = 0.9744 | 0.947 | 1.18 | 1.5 | 1.9 | 2.41 | 2.97 | 3.61 | 4.32 | 5.17 | 6.09

Source: the CheMixHub drug solubility set
